Source: paper PMC11578313, “Miniaturized Modular Click Chemistry‐enabled Rapid Discovery of Unique SARS‐CoV‐2 M^pro Inhibitors With Robust Potency and Drug‐like Profile” (Advanced Science, 2024)
Where two headings read alike, the source gives them in different places.

Tests used:
in vitro [1] = details: human
in vivo = details: ICR, mouse, po, p.o. 10 mg kg^−1 with 20 mg kg^−1 ritonavir, ICR mice, n = 3
in vitro [2] = details: rhesus monkey
HCoV‐229E = assay: microbe, parasite or virus in culture; format: cell-based; details: Human coronavirus 229E, MRC5, read-out: EC50 ± SD, HCoV‐229E
[3] = tested on: SARS‐CoV‐2 Omicron (hCoV‐19/Korea/KDCA447321/2021); assay: microbe, parasite or virus in culture; format: cell-based; details: Severe acute respiratory syndrome coronavirus 2, Calu-3, read-out: EC50 ± SD, SARS‐CoV‐2 Omicron
[4] = tested on: SARS‐CoV‐2 Gamma (hCoV‐19/Korea/KDCA95637/2021); assay: microbe, parasite or virus in culture; format: cell-based; details: Severe acute respiratory syndrome coronavirus 2; Calu‐3; read-out: EC50 ± SD, SARS‐CoV‐2 Gamma
SARS‐CoV‐2 = assay: microbe, parasite or virus in culture; format: cell-based; details: Severe acute respiratory syndrome coronavirus 2, Vero
HCoV‐OC43 = assay: microbe, parasite or virus in culture; format: cell-based; details: Betacoronavirus 1, OC43, MRC5, read-out: EC50 ± SD, HCoV‐OC43
MRC‐5 cells = details: human
MERS‐CoV = assay: microbe, parasite or virus in culture; format: cell-based; details: Middle East respiratory syndrome-related coronavirus, Huh-7, read-out: EC50 ± SD, MERS‐CoV
in vitro [5] = details: human; remark: listed apart in the source
[6] = tested on: SARS‐CoV‐2 (hCoV‐19/Korea/KCDC06/2020, wild type); assay: microbe, parasite or virus in culture; format: cell-based
HCoV‐NL63 = assay: microbe, parasite or virus in culture; format: cell-based; details: Human coronavirus NL63, LLC-MK2, read-out: EC50 ± SD, HCoV‐NL63
in vitro [7] = details: African green monkey
[8] = tested on: SARS‐CoV‐2 Delta (hCoV‐19/Korea/KDCA119861/2021); assay: microbe, parasite or virus in culture; format: cell-based; details: Severe acute respiratory syndrome coronavirus 2; Calu‐3; read-out: EC50 ± SD, SARS‐CoV‐2 Delta

For `CC(C)(C)[C@H](NC(=O)C(F)(F)F)C(=O)N1C[C@H]2[C@@H]([C@H]1C(=O)N[C@H](C#N)C[C@@H]1CCNC1=O)C2(C)C` [Nirmatrelvir, reference compound], the CC50 (in vitro [1]) was > 100000 nM, the Cmax (in vivo; 10 mg/kg, Cmax, p.o. in combination with ritonavir) was 7450 ± 715 ng/mL and the MRT (in vivo; 10 mg/kg, MRT0‐t, p.o. in combination with ritonavir) was 1.55 ± 0.051 h. It also gave an MRT (in vivo; 10 mg/kg, MRT0‐∞, p.o. in combination with ritonavir) of 1.55 ± 0.055 h, a half-life (in vivo; 10 mg/kg, t1/2, p.o. in combination with ritonavir) of 0.692 ± 0.204 h and an AUC (in vivo; AUC0‐t, p.o. in combination with ritonavir) of 14600 ng·h/mL. The CC50 (in vitro [2]) was > 100000 nM, the EC50 (HCoV‐229E) was 378 nM and the EC50 [3] was 3390 ± 245 nM. For the same compound, the EC50 [4] was 3430 ± 519 nM, the EC50 (SARS‐CoV‐2; read-out: EC50 ± SD, Vero cells, with P‐gp inhibitor) was < 46 nM and the EC50 (SARS‐CoV‐2; read-out: EC50 ± SD, Vero cells, without P‐gp inhibitor) was 2080 ± 214 nM. For the same compound, the EC50 (HCoV‐OC43) was < 46 nM, the CC50 (MRC‐5 cells) was > 100000 nM and the EC50 (MERS‐CoV) was 58 nM. The CC50 (in vitro [5]) was > 100000 nM, the CC50 at 2 day (in vitro [5]; CC50 (Table 3), Calu‐3 cells) was > 100000 nM and the CC50 at 2 day (in vitro [5]; CC50, Calu‐3 cells, MTT assay) was > 100000 nM. The EC50 ([6]; Severe acute respiratory syndrome coronavirus 2, Calu-3, read-out: EC50, anti‐SARS‐CoV‐2 activity in Calu‐3 cells (Figure 3B)) was 1950 nM, the EC50 ([6]; Severe acute respiratory syndrome coronavirus 2, Calu-3, read-out: EC50 ± SD, Calu‐3 cells, with P‐gp inhibitor) was < 46 nM and the EC50 ([6]; Severe acute respiratory syndrome coronavirus 2, Calu-3, read-out: EC50 ± SD, Calu‐3 cells, without P‐gp inhibitor) was 1000 ± 31 nM. The EC50 ([6]; Severe acute respiratory syndrome coronavirus 2, Calu-3, read-out: EC50 ± SD, SARS‐CoV‐2 Wild‐type) was 2780 nM, the EC50 (HCoV‐NL63) was > 100000 nM and the CC50 at 2 day (in vitro [7]) was > 100000 nM. The EC50 [8] was 3700 ± 598 nM.
